In patent US9351988B2, “Macrocyclic lactones and use thereof” (UNIVERSITE DE GENEVE, priority 2011, dated 2016):

Tests used:
[1] = system: Human colon adenocarcinoma cell line (LS174T); test: BrdU incorporation proliferation assay in LS174T cells; type: cell-based; details: 48 h
Experimental: (§1) Human colon adenocarcinoma cell line (LS174T), human primary colon cancer cells (CC14) and primary metastatic cells (mCC11) were treated with Avermectin B1 (MicroSource Discovery systems, CT, USA), 5 μM. Control cells were treated with equivalent concentration of DMSO. 48 h after treatment, the percentage of BrdU incorporation was calculated for cells treated with Avermectin B1 as compared to control cells as follows: the number of BrdU positive cells over total number of cells expressed as percentage compared to control cells treated with DMSO only. Cells were cultivated in standard conditions (37° C., 5% CO2) in DMEM containing 10% Fetal Calf Serum.
The same assay as described in Example 1 was carried out on human colon adenocarcinoma cell line LS174T where cell samples were either treated with Abamectin (Sigma #31732) or Doramectin (Sigma #33993) at three different concentrations: 0.1, 1 and 5 μM. Control cells were treated with equivalent concentration of DMSO. 48 h after treatment, the percentage of BrdU incorporation was calculated for cells treated with each macrocyclic lactone as compared to control cells as described above.
(§2) The same assay as described in Example 1 was carried out on human primary colon cancer cells (CC14 and CC36) (TNM IV and III, respectively) and primary metastatic cells (mCC11) from the liver of the patient, on the human adenocarcinoma cell lines DLD1, LS174T, and SW180 and on human skin melanoma cell lines MeWo and SKMel2 where cell samples were treated with Ivermectin (Fabron Iberica S.A.U) or Stromectol™ (Merck & Co. Inc.) which is an oral pharmaceutical formulation of semisynthetic Ivermectin (mixture containing at least 90% 5-O-demethyl-22,23-dihydroavermectin A1a and less than 10% 5-O-demethyl-25-de(1-methylpropyl)-22,23-dihydro-25-(1-methylethyl)avermectin A1a, generally referred to as 22,23-dihydroavermectin B1a and B1b, or H2B1a and H2B1b) at different concentrations: 0.5, 1, 2.5, 5 and 10 μM (Ivermectin diluted in DMSO, Stromectol in Ethanol). Control cells were treated with equivalent concentrations of DMSO. 48 h after treatment the level of BrdU incorporation was calculated for cells treated with each macrocyclic lactone as compared to control cells as described above. IC50 values are calculated by interpolation from a dose response curve fitted using PRISM (Graphpad Software).

[2] = system: human primary colon cancer cells (CC14); test: BrdU incorporation proliferation assay in CC14 cells; type: cell-based; details: 48 h
Experimental: as §1
(§3) The same assay as described in Example 1 was carried out on human primary colon cancer cells (CC14 and CC36) (TNM IV and III, respectively) and primary metastatic cells (mCC11) from the liver of the patient where cell samples were treated with Abamectin (Sigma #31732) at three different concentrations: 0.1, 1 and 5 μM. Control cells were treated with equivalent concentrations of DMSO. 48 h after treatment the level of BrdU incorporation was calculated for cells treated with each macrocyclic lactone as compared to control cells as described above.
as §2, with “Control cells were treated with equivalent concentrations of DMSO. 48 h after treatment the level of BrdU incorporation was calculated for cells treated with each macrocyclic lactone as compared to control cells as described above. IC50 values are calculated by interpolation from a dose response curve fitted using PRISM (Graphpad Software).” left out

[3] = system: primary metastatic cells (mCC11); test: BrdU incorporation proliferation assay in mCC11 cells; type: cell-based, human; details: 48 h
Experimental: as §1, §3
as §2, with “Control cells were treated with equivalent concentrations of DMSO. 48 h after treatment the level of BrdU incorporation was calculated for cells treated with each macrocyclic lactone as compared to control cells as described above. IC50 values are calculated by interpolation from a dose response curve fitted using PRISM (Graphpad Software).” left out

[4] = system: human primary colon cancer cells (CC36); test: BrdU incorporation proliferation assay in CC36 cells; type: cell-based; details: 48 h
Experimental: as §1
as §3, with “above. […]” for “above.”

Wnt pathway = test: Key Wnt target gene expression by quantitative real time PCR in LS174 cells; type: cell-based, human; details: 12 h after 5 μM Avermectin B1 (vs DMSO) or dnTCF4 expression (vs control plasmid)
Experimental: Key Wnt target gene expression was determined by quantitative real time PCR in LS174 colon adenocarcinoma cell line expressing a dominant negative TCF4 cDNA (dnTCF4) or 12 h after treatment with 5 μM Avermectin B1 (MicroSource Discovery systems, CT, USA). Control cell samples were treated with equivalent concentrations of DMSO. Cells were cultivated in standard conditions as described in Example 1.
Expression levels of individual genes are shown as a percentage compared to their expression levels in control cells treated with DMSO only in the case of Avermectin B1, or transfected with control plasmid in the case of dnTCF4, and are shown in Table 1 below: […]

[5] = system: human adenocarcinoma cell line DLD1; test: BrdU incorporation proliferation assay in DLD1 cells; type: cell-based; details: DLD1, 0.5, 1, 2.5, 5 and 10 μM, 48 h
Experimental: as §1, with “Serum. […]” for “Serum.”

[6] = system: human adenocarcinoma cell line SW180; test: BrdU incorporation proliferation assay in SW180 cells; type: cell-based; details: SW180, 0.5, 1, 2.5, 5 and 10 μM, 48 h
Experimental: as §1, with “Serum. […]” for “Serum.”

[7] = system: human skin melanoma cell line MeWo; test: BrdU incorporation proliferation assay in MeWo cells; type: cell-based; details: MeWo, 0.5, 1, 2.5, 5 and 10 μM, 48 h
Experimental: as §1, with “Serum. […]” for “Serum.”

[8] = system: human skin melanoma cell line SKMel2; test: BrdU incorporation proliferation assay in SKMel2 cells; type: cell-based; details: SKMel2, 0.5, 1, 2.5, 5 and 10 μM, 48 h
Experimental: as §1, with “Serum. […]” for “Serum.”

[9] = system: human glioblastoma cancer cell lines and cells from primary human glioblastoma tumors; test: BrdU incorporation proliferation assay in glioblastoma cells; type: cell-based; details: 48 h
[10] = system: human DLD1 CC cell xenografts; test: Mouse xenografts of human colon cancer (DLD1) cells; type: in vivo, nude NMRI mice; details: DLD1 xenografts in nude mice, 10 mg/kg; comparable to dnTCF4 (transgenic Wnt inhibition)
Experimental: Six- to eight-week-old female nude NMRI (Naval Medical Research Institute) mice each receive two injections of 10^5-10^6 human DLD1 CC cells on their backs as independent subcutaneous xenografts. As soon as the tumor is palpable (1-2 mm) (usually 7-10 days following xenograft), a range of concentrations of Ivermectin (Fabron Iberica S.A.U) or Abamectin (Sigma #31732) (0 (excipient only), 10, 50 and 100 mg/kg/day) is given by oral gavage combined with corn oil or is administered intra-peritoneally (IP) combined with 2-hydroxypropyl-β-cyclodextrin (Sigma, 45% solution) in a second set of experiments. Tumor size is periodically measured with a caliper. Mice are sacrificed before the tumors approach the legal size limit and the tumors are removed and analysed for proliferation (BrdU assay), apoptosis (Caspase3 assay, Varnat et al., 2009, EMBO Mol. Med., 1, 338-351) and invasion (Varnat et al., 2010, above). Control mice are treated with carrier-only control cells, or cells expressing a dominant-negative TCF4 construct (dnTCF4), which acts to actively repress Wnt-TCF signalling.

## Abamectin
[1]; LS174T, 0.1, 1 and 5 μM
  proliferation (BrdU incorporation), dose-effect: decreases proliferation in a dose-dependent manner
[2]; CC14, 0.1, 1 and 5 μM
  proliferation (BrdU incorporation), dose-effect: decreases proliferation in a dose-dependent manner
[3]; mCC11, 0.1, 1 and 5 μM
  proliferation (BrdU incorporation), dose-effect: decreases proliferation in a dose-dependent manner
[4]; CC36, 0.1, 1 and 5 μM
  proliferation (BrdU incorporation), dose-effect: decreases proliferation in a dose-dependent manner

## CO[C@H]1C[C@H](O[C@H]2[C@H](C)O[C@@H](O[C@@H]3/C(C)=C/C[C@@H]4C[C@@H](C[C@]5(C=C[C@H](C)[C@@H](C6CCCCC6)O5)O4)OC(=O)[C@@H]4C=C(C)[C@@H](O)[C@H]5OC/C(=C\C=C\[C@@H]3C)[C@]54O)C[C@@H]2OC)O[C@@H](C)[C@@H]1O [Doramectin, 25-cyclohexyl-5-O-demethyl-25-de(1-methylpropyl)avermectin A1a]
[1]; LS174T, 0.1, 1 and 5 μM
  proliferation (BrdU incorporation), dose-effect: decreases proliferation in a dose-dependent manner

## Avermectin B1
[1]; LS174T, 5 μM
  proliferation (percentage of BrdU incorporation compared to DMSO control): decreases to a minimum of half the proliferation
[2]; CC14, 5 μM
  proliferation (percentage of BrdU incorporation compared to DMSO control): decreases to a minimum of half the proliferation
[3]; mCC11, 5 μM
  proliferation (percentage of BrdU incorporation compared to DMSO control): decreases to a minimum of half the proliferation
Wnt pathway
  AXIN2 expression level as percentage compared to control cells: 62%
  C-MYC expression level as percentage compared to control cells: 35%
  EPHB2 expression level as percentage compared to control cells: 78%
  EPHB3 expression level as percentage compared to control cells: 55%
  EPNB1 expression level as percentage compared to control cells: 277%
  LGR5 expression level as percentage compared to control cells: 3%
  P21 expression level as percentage compared to control cells: 635%

## Ivermectin
[1]; LS174T, 0.5, 1, 2.5, 5 and 10 μM
  proliferation (BrdU incorporation), dose-effect: decreases proliferation in a dose-dependent manner
[2]; CC14, 0.5, 1, 2.5, 5 and 10 μM
  proliferation (BrdU incorporation), dose-effect: decreases proliferation in a dose-dependent manner
[3]; mCC11, 0.5, 1, 2.5, 5 and 10 μM
  proliferation (BrdU incorporation), dose-effect: decreases proliferation in a dose-dependent manner
[4]; CC36, 0.5, 1, 2.5, 5 and 10 μM
  proliferation (BrdU incorporation), dose-effect: decreases proliferation in a dose-dependent manner
[5]
  proliferation (BrdU incorporation), dose-effect: decreases proliferation in a dose-dependent manner
[6]
  proliferation (BrdU incorporation), dose-effect: decreases proliferation in a dose-dependent manner
[7]
  proliferation (BrdU incorporation), dose-effect: decreases proliferation in a dose-dependent manner
[8]
  proliferation (BrdU incorporation), dose-effect: decreases proliferation in a dose-dependent manner
[9]
  proliferation (BrdU incorporation), dose-effect: decreases proliferation in a dose-dependent manner
[10]
  colon cancer xenograft growth: able to inhibit colon cancer xenograft growth
